Legend:
[1] = tested on: normal human epidermal melanocytes (line M99-1H6); test: Intracellular melanin content of UVB-stimulated human cultured melanocytes; format: cell-based; conditions: With UV; for PA (pigmenting activity): vs irradiated control
Procedure: In order to evaluate the activity on pigmentation, an in vitro experiment, based on the measurement of intracellular melanin content of human cultured melanocytes exposed (UVB-stimulated) or not exposed to radiation, in the absence and in the presence of the test compound, was conducted. […] Normal human epidermal melanocytes from newborn foreskin were cultured at […] in MGM “serum free” medium (Melanocyte Growth Medium, PromoCell®) supplemented with antibiotics. Cultures were maintained at 37° C. in a humidified 5% CO2 atmosphere. Subcultures of human melanocytes were propaged in MGM medium and used just before reaching confluence. Cells were counted and diluted to the desired concentration in culture medium without calf serum. The cultured melanocytes were placed in 24-well plates at a density of 60×10^3 cells per well. Two plates were seeded with cells: one for the measurement of melanin content (“Melanin plate”) and the other for the measurement of cell densities (“Neutral Red” plate). […] Cells were incubated at 37° C., in a 95% air-5% CO2 atmosphere for eight days. During this period cells were exposed to UVB radiation at day 1 (D1), day 2 (D2), day 3 (D3), day 4 (D4), day 7 (D7) and day 8 (D8). UVB radiation exposure was carried out with a parallel bank of T[…]/12 tubes emitting a continuous spectrum between 280 and 320 nm with a peak emission at 312 nm. A UVB dose of 40 mJ/cm^2 was applied at each exposure. Sham-control cells were subjected to the same procedure, but without UV exposure and without treatment. Before exposure, cell monolayers were washed with pre-warmed Phosphate Buffer Solution (PBS) and then exposed to UVB in the presence of PBS (without test product). Immediately after irradiation PBS was replaced by fresh test medium. After treatment the culture medium was removed. The cells were washed with PBS at pH 6.8 and melanin was extracted by adding NaOH-DMSO solution. Melanin extracts were heated at 80° C. for 2 hours. After cooling, aliquots were added in 96-well microplates. Optical density (OD 450 nm) was recorded at 450 nm with a microplate reader (Dynatech MR 5000). Synthetic melanin standards (Sigma) were incubated at the same conditions. This standard curve allowed the transformation of OD 450 nm into the Melanin Unit Equivalent in each well. Melanin content was measured by absorbance at […] in control and treated melanin extracts. Results were expressed as μg melanin per well determined from the standard curve: DO(450 nm)=f([melanin]). Intracellular melanin content was measured on human normal melanocytes (line […]-1H6) after the formerly described treatment and UVB exposures of cultures. […] The melanin content (μg of melanin per well) was corrected by the cellular density of each respective culture (number of cells per well) in order to express the “Pigmentation level” of cells (expressed in pg melanin/cell). The pigmenting activity (PA) of the test product was calculated according the formula: [formula]

mushroom tyrosinase = conditions: enzymatic mushroom tyrosinase assay, literature; cited from earlier work

## O=c1cc(-c2ccc(O)c(O)c2)oc2cc(O)cc(O)c12 [Luteolin, 3′,4′,5,7-Tetrahydroxyflavone]
[1]; 1 μg/ml
  Melanin content: 57.56 +/− 0.0 pg melanin/well
  PA (pigmenting activity): −22% (p < 0.01)
[1]; 5 μg/ml
  Melanin content: 55.57 +/− 0.0 pg melanin/well
  PA (pigmenting activity): −25% (p < 0.01)
[1]; 10 μg/ml
  Melanin content: 54.84 +/− 1.56 pg melanin/well
  PA (pigmenting activity): −26% (p < 0.01)

## C[C@@H]1O[C@@H](O[C@@H]2[C@@H](O)[C@H](OCCc3ccc(O)c(O)c3)O[C@H](CO)[C@H]2OC(=O)/C=C/c2ccc(O)c(O)c2)[C@H](O)[C@H](O)[C@H]1O [Verbascoside, 2-(3′,4′-dihydroxyphenyl)ethyl-O-α-1-rhamnopyranosyl-(1→3)-β-d-(4-O-caffeoyl)-glucopyranoside]
[1]; 10 μg/ml
  PA (pigmenting activity): −20% (p < 0.01)
[1]; 50 μg/ml
  Melanin content: 58.32 +/− 4.44 pg melanin/well
  PA (pigmenting activity): −21% (p < 0.01)
[1]; 100 μg/ml
  Melanin content: 57.80 +/− 1.63 pg melanin/well
  PA (pigmenting activity): −22% (p < 0.01)

## OCC1O[C@@H](Oc2ccc(O)cc2)C(O)C(O)[C@@H]1O (stereo partly drawn) [arbutin, hydroquinone β-d-glucopyranoside]
Mushroom tyrosinase
  anti-tyrosinase IC50: about 100 μg/ml

Reference: US20090028969A1, “Compostion for treating skin” (priority 2006, published 2009)
